Experiment: Inhibition of ABCB1 in human K562/A02 cells assessed as potentiation of adriamycin-induced cytotoxicity by measuring compound concentration required for reduction of ADR IC50 after 48 hrs by MTT assay

Compound	EC50 [nM]
O=C(Nc1ccc(N2CCOCC2)cc1)c1cccnc1NCc1ccncc1	329
COc1cc2c(cc1OC)CN(CCc1ccc(NC(=O)c3cccnc3NCc3ccncc3)cc1)CC2	120

Source: BindingDB's records for doi:10.1021/acs.jmedchem.6b01879 (China Pharmaceutical University, 2017)
